Assay results from patent publication EP3035931B1, “COMPOSITION FOR REDUCING NERVOUS SYSTEM INJURY AND METHOD OF MAKING AND USE THEREOF” (Morehouse School of Medicine, priority 2013, dated 2015).

Tests used:
[1] = test system: COS-7 cells stably transfected with ASIC1a; assay: Acid-induced LDH release in ASIC1a-transfected COS-7 cells; conditions: 100 µM; 1 hr pH 6.0, LDH 24 hr after acid incubation
[2] = Efficacious plasma and brain concentration in mice; format: in vivo
Excerpt: It is thus estimated that only a 10-fold increase in potency is necessary to achieve efficacious concentrations that are suitable for an acute therapeutic for stroke in humans. […]

TRPM7 channels = TRPM7 channels (Homo sapiens, UniProt Q96QT4); assay: Conductance of TRPM7 channels; format: cell-based
cortical neurons [3] = assay: Fura-2 Ca^2+ imaging of acid-induced increase of [Ca^2+]i in cortical neurons; format: cell-based, mouse; conditions: pH drop to 6.0; blockers of glutamate receptors and voltage-gated Ca^2+ channels present; n=6-8
[4] = Mouse 60 min MCAO, intravenous injection, infarct volume; format: in vivo; conditions: mice, intravenous injection 1, 3 or 5 hours after MCAO, FIG. 19
cortical neurons [5] = format: cell-based, mouse
Experimental: Background absorbance at 620 was subtracted.
Acid-induced injury was studied on neurons grown on 24-well plates incubated in either pH 7.4 or 6.0 ECF containing MK801, CNQX, and nimodipine; see FIG. 8. Cell injury was assayed by the measurement of lactate dehydrogenase (LDH) release (Koh and Choi, J. Neurosci., 1987, 20:83-90) at various time points (FIGS. 8A and 8B) and by fluorescent staining of alive/dead cells. Compared to neurons treated at pH 7.4, 1 hr acid incubation (pH 6.0) induced a time-dependent increase in LDH release (FIG. 8A). After 24 hr, 45.7% ± 5.4% of maximal LDH release was induced (n=25 wells). Continuous treatment at pH 6.0 induced greater cell injury (FIG. 8B, n=20).

TRPM7 channels, sequence (Q96QT4 whole entry): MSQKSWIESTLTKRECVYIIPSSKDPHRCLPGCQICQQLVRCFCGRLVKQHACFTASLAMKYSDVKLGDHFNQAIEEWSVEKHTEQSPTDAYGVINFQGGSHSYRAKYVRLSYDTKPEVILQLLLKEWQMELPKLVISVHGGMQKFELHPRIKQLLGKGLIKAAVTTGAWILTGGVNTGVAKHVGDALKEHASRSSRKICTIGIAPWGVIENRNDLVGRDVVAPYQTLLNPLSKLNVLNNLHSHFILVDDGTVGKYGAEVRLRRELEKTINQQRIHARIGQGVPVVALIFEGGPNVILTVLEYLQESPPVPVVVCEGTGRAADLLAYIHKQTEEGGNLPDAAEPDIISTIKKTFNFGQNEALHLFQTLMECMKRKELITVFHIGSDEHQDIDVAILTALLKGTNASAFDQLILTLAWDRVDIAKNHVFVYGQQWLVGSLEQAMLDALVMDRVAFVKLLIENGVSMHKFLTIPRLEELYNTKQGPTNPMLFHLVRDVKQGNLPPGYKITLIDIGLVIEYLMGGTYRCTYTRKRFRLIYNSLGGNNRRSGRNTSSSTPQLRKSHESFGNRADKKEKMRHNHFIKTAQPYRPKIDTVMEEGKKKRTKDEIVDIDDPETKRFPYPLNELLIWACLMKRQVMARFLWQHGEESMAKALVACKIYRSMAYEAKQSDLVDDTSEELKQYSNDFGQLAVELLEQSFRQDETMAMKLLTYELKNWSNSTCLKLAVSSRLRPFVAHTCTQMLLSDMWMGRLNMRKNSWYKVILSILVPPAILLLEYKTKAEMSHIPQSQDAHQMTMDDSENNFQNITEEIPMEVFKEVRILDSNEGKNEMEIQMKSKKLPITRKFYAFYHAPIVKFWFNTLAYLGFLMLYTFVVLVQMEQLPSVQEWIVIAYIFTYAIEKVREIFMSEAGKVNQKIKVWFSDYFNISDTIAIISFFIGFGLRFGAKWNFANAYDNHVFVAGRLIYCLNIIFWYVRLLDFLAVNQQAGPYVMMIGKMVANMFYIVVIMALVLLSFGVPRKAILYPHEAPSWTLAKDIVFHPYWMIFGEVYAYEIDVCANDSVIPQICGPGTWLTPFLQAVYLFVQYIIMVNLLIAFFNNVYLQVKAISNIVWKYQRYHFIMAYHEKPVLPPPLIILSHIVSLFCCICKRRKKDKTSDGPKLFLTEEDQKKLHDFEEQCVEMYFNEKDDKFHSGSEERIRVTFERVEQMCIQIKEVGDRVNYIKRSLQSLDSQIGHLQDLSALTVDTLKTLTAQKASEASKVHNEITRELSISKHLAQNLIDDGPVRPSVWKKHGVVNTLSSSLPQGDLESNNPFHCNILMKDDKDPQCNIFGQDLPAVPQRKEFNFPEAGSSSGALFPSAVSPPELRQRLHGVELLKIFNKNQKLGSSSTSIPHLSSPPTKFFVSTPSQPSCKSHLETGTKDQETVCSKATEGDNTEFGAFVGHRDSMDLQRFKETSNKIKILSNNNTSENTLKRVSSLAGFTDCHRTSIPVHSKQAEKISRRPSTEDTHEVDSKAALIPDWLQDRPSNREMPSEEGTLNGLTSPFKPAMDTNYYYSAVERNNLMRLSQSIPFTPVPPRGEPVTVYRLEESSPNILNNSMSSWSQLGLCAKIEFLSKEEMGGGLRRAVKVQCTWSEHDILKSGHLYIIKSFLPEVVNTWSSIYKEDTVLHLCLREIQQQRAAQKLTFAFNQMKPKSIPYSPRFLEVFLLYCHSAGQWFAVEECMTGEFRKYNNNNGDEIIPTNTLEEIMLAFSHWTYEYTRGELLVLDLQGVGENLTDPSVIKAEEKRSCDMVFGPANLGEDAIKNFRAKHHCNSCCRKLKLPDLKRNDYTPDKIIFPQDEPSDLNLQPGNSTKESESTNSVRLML

## N=C(N)NC(=O)c1nc(Cl)c(N)nc1N [amiloride]
[1]
  acid-induced LDH release: inhibited
[2]; icv dose of 1 µl x 500 µM
  total brain concentration at which efficacy can be achieved: 12.5 µM
[2]; iv dose of 50 µl x 1mM
  plasma concentration at which efficacy can be achieved: 32.5 µM
TRPM7 channels
  conductance of TRPM7 channels: no effect
Cortical neurons [3]
  peak and sustained increases in [Ca^2+]i: largely inhibited
[4]
  infarct volume: effectively reduce infarct volume
Cortical neurons [5]; 100 µM amiloride 10 min before and during 1 hr pH 6.0 incubation, without blocker 45.3% ± 3.8%
  LDH release at 24 hr: 31.1% ± 2.5%
Cortical neurons [5]; pH 6.0, n=8-12
  LDH release induced by 1 hr acid incubation of ASIC^+/+ neurons: reduced
Cortical neurons [5]; pH 7.4 ECF for 1 hr
  baseline LDH release: did not affect
Cortical neurons [5]; prolonged incubation (e.g., 5 hr), n=8
  LDH release, prolonged incubation with amiloride alone: increased LDH release
